Here are results for 50 molecules from patent US20160002247A1, “8-SUBSTITUTED IMIDAZOPYRIMIDINONE DERIVATIVE HAVING AUTOTAXIN INHIBITORY ACTIVITY” (THE UNIVERSITY OF TOKYO, priority 2013, published 2016).

A value given as a limit tells only on which side of the number the result lay.

Usually IC50 stands for the concentration needed to halve the response being measured.

For the experiment, the target named is T1, Human autotaxin enzyme (Homo sapiens, UniProt Q13822).
T1 construct: purchased R&D System
The experiment can be described thus: Evaluation of autotaxin inhibitor, Method C (Test Example 3): 18:0 Lyso PC, choline assay, Resorufin fluorescence. It counts as biochemical. The conditions noted are these: Assay Method C (Test Example 3), human autotaxin, 18:0 Lyso PC substrate; read-out: Inhibitory Activity (autotaxin enzyme inhibitory activity, IC50 class). The procedure: (Method C) Evaluation of Autotaxin Inhibitor
Solution B containing 100 mM Tris-HCl buffer (pH7.5), 150 mM NaCl, 5 mM MgCl2 and 0.05% Triton X-100 was prepared. Human autotaxin enzyme (purchased from R&D System) was diluted with Solution B, and 2.5 μL of which was added to a solution of test compound in DMSO. Furthermore, 2.5 μl of 200 μM 18:0 Lyso PC (purchased from Avanti Polar Lipids) in Solution B was added and allowed to react at room temperature for 2 hours. After completion of the reaction, 15 μL of the coline assay reagent (100 mM Tris-HCl buffer (pH7.5), 5 mM MgCl2, 77 μg/mL choline oxidase, 10 μg/mL peroxidase, 25 μM 10-acetyl-3,7-dihydroxyphenoxazine and excess autotaxin inhibitor) was added and allowed to react at room temperature for 20 minutes. The fluorescent dye Resorufin, which was produced by the reaction, was detected. The fluorescence was detected using ViewLux (PerkinElmer, Inc.) with an excitation wavelength of 531 nm and a fluorescence wavelength of 598 nm.
The percent inhibition of the test compound was calculated by assuming the sample with no test compound as 0% inhibition and the sample with no enzyme as 100% inhibition, and the percent inhibitions at different concentrations of the test compound were plotted to obtain a concentration-dependent curve.
As to `CCCCCn1c(-c2ccc(C(C)=O)cc2)cc(=O)n2cc(-c3ccc(Cl)cc3)nc12` [Compound 391], the IC50 fell in the range of 10 to 100 nM.
Consider `CCCCCn1c(-c2ccc(CO)cc2)cc(=O)n2cc(-c3ccc(Cl)cc3)nc12` [Compound 394], for which the IC50 was in the range of 10 to 100 nM.
The same measure for `CCCCCn1c(-c2ccc(NS(C)(=O)=O)cc2)cc(=O)n2cc(-c3ccc(Cl)cc3)nc12` [Compound 401]: 10 to 100 nM; for `CCCCCn1c(-c2ccc(C(=O)N3CCCC3)cc2)cc(=O)n2cc(-c3ccc(Cl)cc3)nc12` [Compound 406]: 100 to 1000 nM; for `CCCCCn1c(-c2cccnc2)cc(=O)n2cc(-c3ccc(Cl)cc3)nc12` [Compound 407]: 10 to 100 nM.
Under `CCCCCn1c(-c2cncnc2)cc(=O)n2cc(-c3ccc(Cl)cc3)nc12` [Compound 409] stands 10 to 100 nM.
Under `CCCCCn1c(-c2ccc(S(=O)(=O)NCCO)cc2)cc(=O)n2cc(-c3ccc(Cl)cc3)nc12` [Compound 412] stands 10 to 100 nM.
With `CCCCCn1c(-c2ccc(C(=O)NCCN(C)C)cc2)cc(=O)n2cc(-c3ccc(Cl)cc3)nc12` [Compound 413], the IC50 lay within 10 to 100 nM.
The same measure for `CCCCCn1c(-c2cnn(CCN3CCOCC3)c2)cc(=O)n2cc(-c3ccc(Cl)cc3)nc12` [Compound 425]: 10 to 100 nM; for `CCCCCn1c(-c2cc(NC(C)=O)cc(C(=O)O)c2)cc(=O)n2cc(-c3ccc(Cl)cc3)nc12` [Compound 427]: 10 to 100 nM; for `CCCCCn1c(-c2cccc(C(=O)NCc3ccccc3)c2)cc(=O)n2cc(-c3ccc(Cl)cc3)nc12` [Compound 428]: 100 to 1000 nM.
The same measure for `CCCCCn1c(-c2ccc(S(=O)(=O)O)cc2)cc(=O)n2cc(-c3ccc(Cl)cc3)nc12` [Compound 429]: 10 to 100 nM; for `CCCCCn1c(-c2ccc(S(=O)(=O)N3CCOCC3)cc2)cc(=O)n2cc(-c3ccc(Cl)cc3)nc12` [Compound 430]: 10 to 100 nM; for `CCCCCn1c(-c2ccc(S(=O)(=O)NC)cc2)cc(=O)n2cc(-c3ccc(Cl)cc3)nc12` [Compound 431]: 10 to 100 nM.
Under `CCCCCn1c(-c2ccc(SC)cc2)cc(=O)n2cc(-c3ccc(Cl)cc3)nc12` [Compound 432] stands 100 to 1000 nM; under `CCCCCn1c(-c2ccc(S(C)(=O)=O)cc2)cc(=O)n2cc(-c3ccc(Cl)cc3)nc12` [Compound 433], 10 to 100 nM.
As for `CCCCCn1c(-c2ccc(NC(C)=O)cc2)cc(=O)n2cc(-c3ccc(Cl)cc3)nc12` [Compound 434], the 50% inhibitory concentration (IC50) was in the range of 100 to 1000 nM.
The same measure for `CCCCCn1c(-c2ccc(CC)cc2)cc(=O)n2cc(-c3ccc(Cl)cc3)nc12` [Compound 435]: 100 to 1000 nM; for `CCCCCn1c(-c2cccc(C(=O)NCCOC)c2)cc(=O)n2cc(-c3ccc(Cl)cc3)nc12` [Compound 436]: 10 to 100 nM.
Under `CCCCCn1c(-c2ccc(NC(=O)N3CCOCC3)cc2)cc(=O)n2cc(-c3ccc(Cl)cc3)nc12` [Compound 437] stands 10 to 100 nM.
The same measure for `CCCCCn1c(-c2ccc(NS(=O)(=O)N(C)C)cc2)cc(=O)n2cc(-c3ccc(Cl)cc3)nc12` [Compound 438]: 10 to 100 nM; for `CCCCCn1c(-c2cccc(C(=O)NCCN(C)C)c2)cc(=O)n2cc(-c3ccc(Cl)cc3)nc12` [Compound 439]: 10 to 100 nM; for `CCCCCn1c(-c2ccccc2NS(C)(=O)=O)cc(=O)n2cc(-c3ccc(Cl)cc3)nc12` [Compound 440]: 100 to 1000 nM.
For `CCCCCn1c(-c2cccc(NS(C)(=O)=O)c2)cc(=O)n2cc(-c3ccc(Cl)cc3)nc12` [Compound 441], the 50% inhibitory concentration (IC50) is 100 to 1000 nM.
Under `CCCCCn1c(-c2ccc(CCCC)cc2)cc(=O)n2cc(-c3ccc(Cl)cc3)nc12` [Compound 442] stands greater than 1000 nM; under `CCCCCn1c(-c2ccccc2F)cc(=O)n2cc(-c3ccc(Cl)cc3)nc12` [Compound 443], 100 to 1000 nM.
The same measure for `CCCCCn1c(-c2cccc(F)c2)cc(=O)n2cc(-c3ccc(Cl)cc3)nc12` [Compound 444]: 100 to 1000 nM; for `CCCCCn1c(-c2cccc(N3CCOCC3)c2)cc(=O)n2cc(-c3ccc(Cl)cc3)nc12` [Compound 445]: 100 to 1000 nM; for `CCCCCn1c(-c2ccc(CCCO)cc2)cc(=O)n2cc(-c3ccc(Cl)cc3)nc12` [Compound 446]: 100 to 1000 nM.
The same measure for `CCCCCn1c(-c2cccc(C(C)=O)c2)cc(=O)n2cc(-c3ccc(Cl)cc3)nc12` [Compound 447]: 10 to 100 nM.
As to `CCCCCn1c(-c2ccc3[nH]c(=O)[nH]c3c2)cc(=O)n2cc(-c3ccc(Cl)cc3)nc12` [Compound 448], the 50% inhibitory concentration (IC50) was 10 to 100 nM.
Under `CCCCCn1c(-c2ccc(N3C[C@@H](CNC(C)=O)OC3=O)cc2F)cc(=O)n2cc(-c3ccc(Cl)cc3)nc12` [Compound 449] stands 10 to 100 nM; under `CCCCCn1c(-c2ccc3ncsc3c2)cc(=O)n2cc(-c3ccc(Cl)cc3)nc12` [Compound 450], 10 to 100 nM.
Under `CCCCCn1c(-c2ccc(OCCO)c(S(N)(=O)=O)c2)cc(=O)n2cc(-c3ccc(Cl)cc3)nc12` [Compound 451] stands 10 to 100 nM; under `CCCCCn1c(-c2cccc(S(=O)(=O)N3CCOCC3)c2)cc(=O)n2cc(-c3ccc(Cl)cc3)nc12` [Compound 452], 10 to 100 nM; under `CCCCCn1c(-c2ccc(C(=O)OCC)cc2)cc(=O)n2cc(-c3ccc(Cl)cc3)nc12` [Compound 453], 100 to 1000 nM.
Under `CCCCCn1c(-c2cnc(OC)nc2OC)cc(=O)n2cc(-c3ccc(Cl)cc3)nc12` [Compound 454] stands 10 to 100 nM.
On to `CCCCCn1c(-c2cnccc2OC)cc(=O)n2cc(-c3ccc(Cl)cc3)nc12` [Compound 455], for which the IC50 is 100 to 1000 nM.
Under `CCCCCn1c(-c2ccc(OC)nc2)cc(=O)n2cc(-c3ccc(Cl)cc3)nc12` [Compound 456] stands 10 to 100 nM; under `CCCCCn1c(-c2ccc(F)nc2)cc(=O)n2cc(-c3ccc(Cl)cc3)nc12` [Compound 457], 10 to 100 nM.
Under `CCCCCn1c(-c2cnc(OC)c(Cl)c2)cc(=O)n2cc(-c3ccc(Cl)cc3)nc12` [Compound 458] stands 100 to 1000 nM; under `CCCCCn1c(-c2cnc(N)nc2)cc(=O)n2cc(-c3ccc(Cl)cc3)nc12` [Compound 459], 10 to 100 nM.
Under `CCCCCn1c(-c2ccnc(OC)c2)cc(=O)n2cc(-c3ccc(Cl)cc3)nc12` [Compound 460] stands 100 to 1000 nM; under `CCCCCn1c(-c2cncc(OC)c2)cc(=O)n2cc(-c3ccc(Cl)cc3)nc12` [Compound 461], 10 to 100 nM.
For `CCCCCn1c(-c2ccc(C#N)nc2)cc(=O)n2cc(-c3ccc(Cl)cc3)nc12` [Compound 462], the IC50 lay within 10 to 100 nM.
The same measure for `CCCCCn1c(-c2cnc(O)nc2)cc(=O)n2cc(-c3ccc(Cl)cc3)nc12` [Compound 463]: 10 to 100 nM; for `CCCCCn1c(-c2ccc(C(=O)NCCC#N)cc2)cc(=O)n2cc(-c3ccc(Cl)cc3)nc12` [Compound 465]: 10 to 100 nM.
The same measure for `CCCCCn1c(-c2ccc(C(=O)Nc3ccncc3)cc2)cc(=O)n2cc(-c3ccc(Cl)cc3)nc12` [Compound 466]: 10 to 100 nM; for `CCCCCn1c(-c2ccc(C(=O)N(CCO)CCO)cc2)cc(=O)n2cc(-c3ccc(Cl)cc3)nc12` [Compound 467]: 10 to 100 nM; for `CCCCCn1c(-c2ccc(C(=O)NC(C)(C)C)cc2)cc(=O)n2cc(-c3ccc(Cl)cc3)nc12` [Compound 468]: 100 to 1000 nM.
